# Reference: patent US8173645B2 (Takeda San Diego, Inc., priority 2007, dated 2012)
# Biological target: T1, glucokinase (GK), residues 12-465 of the human enzyme (Homo sapiens, UniProt P35557)
# T1 construct: I.D. No. 1 corresponds to residues 12-465 of glucokinase; made in house; host or cells: E. coli DH10b-Tlr
# T1 sequence (P35557 with tags, fused parts or gaps isoform P35557-2): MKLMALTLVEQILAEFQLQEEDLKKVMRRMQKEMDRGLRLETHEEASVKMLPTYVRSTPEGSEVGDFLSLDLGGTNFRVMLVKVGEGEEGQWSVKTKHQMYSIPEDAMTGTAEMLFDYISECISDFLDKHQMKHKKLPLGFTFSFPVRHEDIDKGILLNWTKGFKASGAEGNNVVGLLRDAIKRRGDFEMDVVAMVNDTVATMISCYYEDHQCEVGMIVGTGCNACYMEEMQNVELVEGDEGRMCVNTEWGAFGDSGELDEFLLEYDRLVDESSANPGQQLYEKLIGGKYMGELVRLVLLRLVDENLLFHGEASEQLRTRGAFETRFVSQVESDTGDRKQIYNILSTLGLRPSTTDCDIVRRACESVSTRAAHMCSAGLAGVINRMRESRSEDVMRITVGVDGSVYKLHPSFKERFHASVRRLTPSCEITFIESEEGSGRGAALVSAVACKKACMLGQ
# Assay: Enzymatic glucokinase activity assay (KinaseGlo luminescence, ATP consumption)
# Assay type: biochemical
# Settings: 5 μM ATP, 5 mM Glucose; for EC50: GK activation, Kact = concentration giving 50% of the maximal increase in GK activity, read-out: pKact; for Emax: calculated maximal gain in GK enzyme activity at a saturating concentration of the compound, read-out: % ACTmax
# Text: The activity of compounds as glucokinase activators may be assayed in vitro, in vivo or in a cell line. Provided below is an enzymatic glucokinase activity assay.
# Purified glucokinase may be obtained as follows. DNA encoding residues 12-465 of the full-length sequence of the human enzyme may be amplified by PCR and cloned into the HindIII and EcoRI sites of pFLAG-CTC (Sigma). SEQ. I.D. No. 1 corresponds to residues 12-465 of glucokinase.
# The expression of recombinant glucokinase protein may be carried out by transformation and growth of DH10b-Tlr E. coli cells incorporating the (pFLAG-CTC) plasmid in LB media. Protein expression can be induced in this system by the addition of IPTG to the culture medium.
# Recombinant protein may be isolated from cellular extracts by passage over Sepharose Q Fast Flow resin (Pharmacia). This partially purified GK extract may then be further purified by a second passage over Poros HQ 10 (Applied Biosystems). The purity of GK may be determined on denaturing SDS-PAGE gel. Purified GK may then be concentrated to a final concentration of 20.0 mg/ml. After flash freezing in liquid nitrogen, the proteins can be stored at −78° C. in a buffer containing 25 mM TRIS-HCl pH 7.6, 50 mM NaCl, and 0.5 mM TCEP.
# The activation properties of compounds for GK may be determined using a black 384-well-plate format under the following reaction conditions: 25 mM Hepes pH 7.2, 25 mM NaCl, 10 mM MgCl2, 0.01% Brij35, 1 mM DTT, 5 μM ATP, 5 mM Glucose 2% DMSO. The amount of ATP consumed may be determined quantitatively by addition of equal volume of luciferase reagent (luciferase+beetle luciferin—KinaseGlo Luminescent Kinase Assay kit from Promega). The luminescence intensity may be measured by using the Analyst HT from LJL Biosystems.
# The assay reaction may be initiated as follows: 4 μl of substrate mixture (12.5 μM ATP and 12.5 mM Glucose) was added to each well of the plate, followed by the addition of 2 μl of activator (2 fold serial dilutions for 11 data points for each activator) containing 10% DMSO. 4 μL of 1.25 nM GK solution may be added to initiate the reaction. The reaction mixture may then be incubated at room temperature for 60 min, and quenched and developed by addition of 10 μL of luciferase reagent. Luminescence intensities of the resulting reaction mixtures may be measured after a 10 min incubation at room temperature. The luminescence intensity may be measured by using the Analyst HT from LJL Biosystems.
# pKact and % ACTmax values may be calculated by non-linear curve fitting of the compound concentrations and luminescence intensities to a standard inhibition/activation equation.
EC50 [µM],Emax [%],SMILES
1.58 to 2.51,108 to 119,"O=C(Nc1ncc(F)s1)[C@H](CC1CCOCC1)N1CCN(S(=O)(=O)C2CC2)CC1=O [Example 21, (S)-2-(4-(cyclopropylsulfonyl)-2-oxopiperazin-1-yl)-N-(5-fluorothiazol-2-yl)-3-(tetrahydro-2H-pyran-4-yl)propanamide]"
0.794 to 1.26,97.1 to 107,"Cc1nccc(-c2cccc(S(=O)(=O)N3CCN([C@@H](CC4CCCCC4)C(=O)Nc4nccs4)C(=O)C3)c2)n1 [Example 169, (S)-3-cyclohexyl-2-(4-(3-(2-methylpyrimidin-4-yl)phenylsulfonyl)-2-oxopiperazin-1-yl)-N-(thiazol-2-yl)propanamide]"
1.58 to 2.51,74.1 to 97,"O=C(Nc1nccs1)[C@H](CC1CCCCC1)N1CCN(S(=O)(=O)Cc2cccc(C(F)(F)F)c2)CC1=O [Example 213, (S)-3-cyclohexyl-2-(2-oxo-4-(3-(trifluoromethyl)benzylsulfonyl)piperazin-1-yl)-N-(thiazol-2-yl)propanamide]"
≥ 3.16,97.1 to 107,"O=C(Nc1nccs1)[C@H](CC1CCCCC1)N1CCN(C(=S)Nc2ccc(Cl)cc2)CC1=O [Example 125, (S)-2-(4-(4-chlorophenylcarbamothioyl)-2-oxopiperazin-1-yl)-3-cyclohexyl-N-(thiazol-2-yl)propanamide]"
≤ 0.631,97.1 to 107,"O=C(Nc1nccs1)[C@H](CC1CCCCC1)N1CCN(S(=O)(=O)c2ccccc2)CC1=O [Example 79, (S)-3-cyclohexyl-2-(2-oxo-4-(phenylsulfonyl)piperazin-1-yl)-N-(thiazol-2-yl)propanamide]"
≥ 3.16,97.1 to 107,"O=C(Nc1nccs1)[C@H](CC1CCCCC1)N1CCN(C(=S)Nc2cccc(C(F)(F)F)c2)CC1=O [Example 84, (S)-3-cyclohexyl-2-(2-oxo-4-(3-(trifluoromethyl)phenylcarbamothioyl)piperazin-1-yl)-N-(thiazol-2-yl)propanamide]"
1.58 to 2.51,≤ 74,"O=C(Nc1nccs1)[C@H](CC1CCCCC1)N1CCN(S(=O)(=O)c2cnc(Cl)c(Br)c2)CC1=O [Example 217, (S)-2-(4-(5-bromo-6-chloropyridin-3-ylsulfonyl)-2-oxopiperazin-1-yl)-3-cyclohexyl-N-(thiazol-2-yl)propanamide]"
1.58 to 2.51,97.1 to 107,"Cc1nn(C)c(Cl)c1S(=O)(=O)N1CCN([C@@H](CC2CCCCC2)C(=O)Nc2nccs2)C(=O)C1 [Example 47, (S)-2-(4-(5-chloro-1,3-dimethyl-1H-pyrazol-4-ylsulfonyl)-2-oxopiperazin-1-yl)-3-cyclohexyl-N-(thiazol-2-yl)propanamide]"
≤ 0.631,108 to 119,"O=C(Nc1nccs1)[C@H](CC1CCCCC1)N1CCN(S(=O)(=O)c2cccc(F)c2)CC1=O [Example 61, (S)-3-cyclohexyl-2-(4-(3-fluorophenylsulfonyl)-2-oxopiperazin-1-yl)-N-(thiazol-2-yl)propanamide]"
1.58 to 2.51,74.1 to 97,"COc1cccc(C[C@@H](C(=O)Nc2nccs2)N2CCN(S(=O)(=O)C3CC3)CC2=O)c1 [Example 4, (S)-2-(4-(cyclopropylsulfonyl)-2-oxopiperazin-1-yl)-3-(3-methoxyphenyl)-N-(thiazol-2-yl)propanamide]"
≥ 3.16,≤ 74,"O=C(Nc1nccs1)[C@H](CC1CCCCC1)N1CCN(C(=O)Nc2ccc(Cl)cc2)CC1=O [Example 137, (S)-N-(4-chlorophenyl)-4-(3-cyclohexyl-1-oxo-1-(thiazol-2-ylamino)propan-2-yl)-3-oxopiperazine-1-carboxamide]"
1.58 to 2.51,97.1 to 107,"O=C(Nc1nccs1)[C@H](CC1CCCCC1)N1CCN(C(=S)NCCN2CCOCC2)CC1=O [Example 117, (S)-3-cyclohexyl-2-(4-(2-morpholinoethylcarbamothioyl)-2-oxopiperazin-1-yl)-N-(thiazol-2-yl)propanamide]"
≥ 3.16,≤ 74,"O=C(Nc1ncc(Cl)s1)[C@@H](CC1CCOCC1)N1CCN(S(=O)(=O)C2CC2)CC1=O [Example 25, (R)-N-(5-chlorothiazol-2-yl)-2-(4-(cyclopropylsulfonyl)-2-oxopiperazin-1-yl)-3-(tetrahydro-2H-pyran-4-yl)propanamide]"
0.794 to 1.26,108 to 119,"O=C(Nc1nccs1)[C@H](CC1CCCCC1)N1CCN(S(=O)(=O)c2cccc(OC(F)F)c2)CC1=O [Example 106, (S)-3-cyclohexyl-2-(4-(3-(difluoromethoxy)phenylsulfonyl)-2-oxopiperazin-1-yl)-N-(thiazol-2-yl)propanamide]"
0.794 to 1.26,≤ 74,"O=C(Nc1nccs1)[C@H](CC1CCCCC1)N1CCN(S(=O)(=O)c2ccc3ccccc3c2)CC1=O [Example 39, (S)-3-cyclohexyl-2-(4-(naphthalen-2-ylsulfonyl)-2-oxopiperazin-1-yl)-N-(thiazol-2-yl)propanamide]"
0.794 to 1.26,74.1 to 97,"O=C(c1cccc(S(=O)(=O)N2CCN([C@@H](CC3CCCCC3)C(=O)Nc3nccs3)C(=O)C2)c1)c1ccccn1 [Example 178, (S)-3-cyclohexyl-2-(2-oxo-4-(3-picolinoylphenylsulfonyl)piperazin-1-yl)-N-(thiazol-2-yl)propanamide]"
0.794 to 1.26,108 to 119,"CC(=O)N1CCC(CC(C(=O)Nc2nccs2)N2CCN(S(=O)(=O)C3CC3)CC2=O)C1 (centres unmarked) [Example 20, 3-(1-acetylpyrrolidin-3-yl)-2-(4-(cyclopropylsulfonyl)-2-oxopiperazin-1-yl)-N-(thiazol-2-yl)propanamide]"
0.794 to 1.26,≥ 119,"O=C(Nc1nccs1)[C@H](CC1CCCCC1)N1CCN(C(=S)Nc2ccccc2OC(F)(F)F)CC1=O [Example 136, (S)-3-cyclohexyl-2-(2-oxo-4-(2-(trifluoromethoxy)phenylcarbamothioyl)piperazin-1-yl)-N-(thiazol-2-yl)propanamide]"
1.58 to 2.51,74.1 to 97,"O=C(Nc1nccs1)[C@H](CC1CCCCC1)N1CCN(S(=O)(=O)Cc2cc(Cl)cc(Cl)c2)CC1=O [Example 212, (S)-3-cyclohexyl-2-(4-(3,5-dichlorobenzylsulfonyl)-2-oxopiperazin-1-yl)-N-(thiazol-2-yl)propanamide]"
0.794 to 1.26,108 to 119,"COc1ccc(OC)c(S(=O)(=O)N2CCN([C@@H](CC3CCCCC3)C(=O)Nc3nccs3)C(=O)C2)c1 [Example 194, (S)-3-cyclohexyl-2-(4-(2,5-dimethoxyphenylsulfonyl)-2-oxopiperazin-1-yl)N-(thiazol-2-yl)propanamide]"
0.794 to 1.26,≤ 74,"O=C(Nc1nccs1)[C@H](CC1CCCCC1)N1CCN(S(=O)(=O)c2ccc(Cl)c(Cl)c2)CC1=O [Example 90, (S)-3-cyclohexyl-2-(4-(3,4-dichlorophenylsulfonyl)-2-oxopiperazin-1-yl)-N-(thiazol-2-yl)propanamide]"
≥ 3.16,74.1 to 97,"O=C(Nc1nccs1)[C@H](CC1CCCCC1)N1CCN(C(=O)Nc2ccc3ccccc3c2)CC1=O [Example 139, (S)-4-(3-cyclohexyl-1-oxo-1-(thiazol-2-ylamino)propan-2-yl)-N-(naphthalen-2-yl)-3-oxopiperazine-1-carboxamide]"
